In patent publication US20160067221A1, “USE OF ERGOTHIONEINE FOR INDUCING ACTIVITY OF NRF2 IN CELL” (China Medical University, priority 2014, published 2016):

Key:
Type in all cases: cell-based, human
HaCaT cells [1] = assay: Cell viability by MTT assay, with or without UVA irradiation
Procedure: To examine a safety of the ergothioneine and a safe used dose of the ergothioneine to normal cells, HaCaT cells, human keratinocyte cell lines, are treated with different dose of the ergothioneine and then detected a cell viability.
The HaCaT cells are maintained at 37° C. in a humidified atmosphere of 5% CO2 in a culture medium (Dulbecco's modified Eagle medium/high glucose (DMEM) supplemented with 10% heat-inactivated fetal bovine serum (FBS)).
The cell viability is monitored using a method of […] (MTT assay). The HaCaT cells are seeded in a 12-well plate with 1×10^5 cells/well and then maintained at 37° C. in a humidified atmosphere of 5% CO2 untill the HaCaT cells are adhered in the next day. The HaCaT cells are subsequently incubated with or without the ergothioneine, and then maintained at 37° C. in a humidified atmosphere of 5% CO2 for 24 hours, wherein the concentration of the ergothioneine is 125 nM, 250 nM and 500 nM, respectively. Next, the HaCaT cells are washed with phosphate buffered saline (PBS) three times, and then irradiated with the UVA (15 J/cm^2). After the UVA irradiation, the PBS is replaced with the culture medium to culture the HaCaT cells for 4 hours. In next step, the culture medium is removed, the HaCaT cells are washed with PBS thrice, and then 450 μL of 1×MTT agent is added in each well to react at 37° C. in a humidified atmosphere of 5% CO2 for 2 hours. A culture supernatant is removed and re-suspended with 400 μL of isopropanol to dissolve MTT formazan. 200 μL of the supernatant is taken from the well and then added into a 96-well microplate to measure an absorbance at 570 nm.
The cell viability of the HaCaT cells is detected by the MTT assay.

HaCaT cells [2] = assay: Comet assay (DNA damage); details: for Toxicity Scale 0 (comets in class 0) / Toxicity Scale 1 (comets in class 1) / Toxicity Scale 2 (comets in class 2) / Toxicity Scale 3 (comets in class 3) / Toxicity Scale 4 (comets in class 4): per 100 comets
Description: The exposure of the UVA can cause a DNA damage. To examine the effect of the ergothioneine on the UVA-induced DNA damage, we use a comet assay to analyze the DNA damage. The comet assay involves an encapsulation of the cells in a low-melting-point agarose suspension, the cells lysis in alkaline (pH>13) conditions, a short-term electrophoresis of the suspended lysed cells, and a stained DNA of an electrophoretic stripe using the fluorescent dye. The term “comet” refers to a pattern of a DNA migration through the electrophoresis gel, wherein the DNA migration is caused by a DNA cleavage fragment of the damaged cell released from its nucleus, and the DNA cleavage fragment moves faster than the nucleus of a non-damaged cell in an electric field and results in structure resembling the comet. […] Then, the HaCaT cells are performed the comet assay and stained by red fluorescent dye. The pattern of the nucleus of the damaged cell resembles the comet in the comet assay, which is caused by the DNA cleavage fragment of the damaged cell. In contrast, the pattern of the nucleus of the normal cell, which has non-DNA cleavage fragment, is spherical in the comet assay. […] In FIG. 4 and Table 1, the UVA irradiation (15 J/cm^2) for 4 hours triggers the DNA breakage of the nucleus shown as the tail. The overall score of the group treated with the UVA irradiation alone is 356.3±2.1. […] Therefore, the ergothioneine can inhibit the DNA damage and has a protective property.

[3] = system: UVA-irradiated HaCaT cells; assay: Total glutathione (GSH) content, DTNB method; details: 125-500 nM 24 hours prior to 15 J/cm^2 UVA, 4 hours; dose-dependent
Description: A glutathione (GSH), the antioxidant in animal cells, can protect DNA against external oxidative stresses. Given that the ergothioneine treatment to the HaCaT cells can reduce the DNA damage of the HaCaT cells; this example next investigates the UVA-induced oxidative damage by determining a total GSH content of the HaCaT cells treated with the ergothioneine or the UVA irradiation. A glutathione disulfide (GSSG) is an oxidized form of the GSH, and the GSSG can be reduced to the GSH by a glutathione reductase. Antioxidant enzymes, such as glutathione peroxidases and peroxiredoxins, generate glutathione disulfide during the reduction of peroxides such as hydrogen peroxide (H2O2) and organic hydroperoxides (ROOH). The GSH generates a yellow-colored 5-thio-2-nitrobenzoic acid (TNB) and a […] GSTNB (between GSH and TNB) during the reaction of 5,5′-dithiobis-(2-nitrobenzoic acid) (DTNB), wherein the content of (GSSG+GSH) is the rate determining factor of color production in aforementioned reactions. The rate of the yellow-colored TNB production is directly proportional to the concentration of (GSSG+GSH) in a sample. Thus, measurement of the absorbance of the TNB provides an accurate estimation of the amount of total glutathione (GSSG+GSH) in the sample. […] The net absorbance at 405 nm yields an accurate amount of the total glutathione in the sample.

Question: Which results are given for C[N+](C)(C)[C@@H](Cc1c[nH]c(=S)[nH]1)C(=O)[O-] [ergothioneine, 2-mercapto histidine trimethylbetain]?
Answer: cell death at respective dose of UVA irradiation (HaCaT cells [1]; 500 nM for 2 hours, UVA 5-15 J/cm^2): significantly attenuated; cytotoxic effects (cell viability) (HaCaT cells [1]; HaCaT cells, 125-500 nM, 24 hours): does not cause any cytotoxic effects; cell viability (HaCaT cells [1]; pretreated with 500 nM, then UVA 15 J/cm^2, cultured 4 hours): 75.5%; UVA-induced cell death (HaCaT cells [1]; pretreatment 125-500 nM, UVA 15 J/cm^2): attenuates a UVA-induced cell death in a dose-dependent manner; Total Damage (overall comet score, 0-400) (HaCaT cells [2]; 250 nM + 15 J/cm^2 UVA): 144 ± 10; Toxicity Scale 0 (comets in class 0) (HaCaT cells [2]; 250 nM + 15 J/cm^2 UVA): 20 ± 1; Toxicity Scale 1 (comets in class 1) (HaCaT cells [2]; 250 nM + 15 J/cm^2 UVA): 27 ± 6; Toxicity Scale 2 (comets in class 2) (HaCaT cells [2]; 250 nM + 15 J/cm^2 UVA): 52 ± 9; Toxicity Scale 3 (comets in class 3) (HaCaT cells [2]; 250 nM + 15 J/cm^2 UVA): 0 ± 0; Toxicity Scale 4 (comets in class 4) (HaCaT cells [2]; 250 nM + 15 J/cm^2 UVA): 0 ± 0; Total Damage (overall comet score, 0-400) (HaCaT cells [2]; 250 nM, no UVA): 14 ± 4; Toxicity Scale 0 (comets in class 0) (HaCaT cells [2]; 250 nM, no UVA): 88 ± 4; Toxicity Scale 1 (comets in class 1) (HaCaT cells [2]; 250 nM, no UVA): 10 ± 4; Toxicity Scale 2 (comets in class 2) (HaCaT cells [2]; 250 nM, no UVA): 2 ± 2; Toxicity Scale 3 (comets in class 3) (HaCaT cells [2]; 250 nM, no UVA): 0 ± 0; Toxicity Scale 4 (comets in class 4) (HaCaT cells [2]; 250 nM, no UVA): 0 ± 0; Total Damage (overall comet score, 0-400) (HaCaT cells [2]; 500 nM + 15 J/cm^2 UVA): 59.0±7.0; Total Damage (overall comet score, 0-400) (HaCaT cells [2]; 500 nM + 15 J/cm^2 UVA, listed as EGT): 59 ± 7; Toxicity Scale 0 (comets in class 0) (HaCaT cells [2]; 500 nM + 15 J/cm^2 UVA): 49 ± 7; Toxicity Scale 1 (comets in class 1) (HaCaT cells [2]; 500 nM + 15 J/cm^2 UVA): 43 ± 8; Toxicity Scale 2 (comets in class 2) (HaCaT cells [2]; 500 nM + 15 J/cm^2 UVA): 8 ± 1; Toxicity Scale 3 (comets in class 3) (HaCaT cells [2]; 500 nM + 15 J/cm^2 UVA): 0 ± 0; Toxicity Scale 4 (comets in class 4) (HaCaT cells [2]; 500 nM + 15 J/cm^2 UVA): 0 ± 0; Total Damage (overall comet score, 0-400) (HaCaT cells [2]; 500 nM, no UVA): 22 ± 6; Toxicity Scale 0 (comets in class 0) (HaCaT cells [2]; 500 nM, no UVA): 81 ± 6; Toxicity Scale 1 (comets in class 1) (HaCaT cells [2]; 500 nM, no UVA): 16 ± 7; Toxicity Scale 2 (comets in class 2) (HaCaT cells [2]; 500 nM, no UVA): 3 ± 2; Toxicity Scale 3 (comets in class 3) (HaCaT cells [2]; 500 nM, no UVA): 0 ± 0; Toxicity Scale 4 (comets in class 4) (HaCaT cells [2]; 500 nM, no UVA): 0 ± 0; total glutathione level [3]: increased
